Source: patent US7875586B2 (priority 2002, dated 2011)
Entries after “also recorded” stand apart in the source; their conditions may differ. Peptide text beside a SMILES is read from it. * marks the point of attachment. Cbz = O=C(OCc1ccccc1)*; CH2F = FC*

What was measured:
Assay type in all cases: cell-based, human
[1] = system: T-84 cells
[2] = system: Caco-2 cells
[3] = system: living Caco-2 cells
[4] = system: Caco-2 cells; remark: listed apart in the source

CCCCCCCCCCCCCCCC(=O)NC(CN1CCOCC1)C(O)c1ccccc1 (stereo not drawn) [PPMP, threo-1-phenyl-2-palmitoylamino-3-morpholino-1-propanol]
Subpopulation of Gb3 enriched cells with filopodia on the leading edge [1]: completely eliminated
Subpopulation of Gb3 enriched cells with filopodia on the leading edge [2]: completely eliminated

C[C@@H](N)[C@H]1CC[C@H](C(=O)Nc2ccncc2)CC1 [Y-27632]
Cell morphology [3]: pronounced effects
Filopodia and filopodia-mediated cell-cell contacts [3]: did not change

COC(=O)C[C@H](NC(=O)[C@H](C)NC(=O)[C@@H](NC(=O)OCc1ccccc1)C(C)C)C(=O)CF [z-VAD-fink] (Cbz-Val-Ala-Asp(OMe)-CH2F)
Effect of caspase inhibition on DNA fragmentation caused by Stx1B [4]: decreased DNA fragmentation; also recorded: Inhibition of apoptotic DNA fragmentation
